Patent publication EP4379060A1, “HIGH-EFFICIENCY PRODUCTION OF HYDROXYECTOINE” (Universität des Saarlandes, priority 2022, dated 2024)

Experiments:
C. glutamicum [1] = experiment: Microbioreactor cultivation at different initial ectoine levels (growth, on-line OD620); assay type: cell-based, Corynebacterium glutamicum ATCC 13032; details: 30°C
Experimental: Cultivation of C. glutamicum in microbioreactors. Screening of C. glutamicum strains was carried out in 48-well flower plates with transparent bottom for online biomass sensing using a microbioreactor (BioLector, Beckman Coulter GmbH, Baesweiler, Germany, Baesweiler, Germany) at 1,300 rpm, 85% humidity and different temperatures, as given below. Two subsequent pre-cultures were conducted in shake flasks as described above. For main cultures, each well of the microtiter plate was filled with 1 mL of minimal glucose medium and inoculated to an initial OD660 of 0.5. Over the course of the cultivation, biomass was measured online as light backscatter at 620 nm. All experiments were conducted as triplicate.
In a first experiment the inventors examined if C. glutamicum, expressing ectD from P. stutzeri, can convert externally supplied ectoine into hydroxyectoine and, beneficially, excrete the latter (Fig. 1c). […]

C. glutamicum [2] = experiment: Quantification of intracellular ectoines and free amino acids in cells grown with ectoine; assay type: cell-based, Corynebacterium glutamicum ATCC 13032; details: 37°C, 10 h
Experimental: Cultivation of C. glutamicum in shake flask. Cultures of C. glutamicum were incubated in baffled shake flasks (10% filling volume) in an orbital shaker at 230 rpm (Multitron, Infors AG, Bottmingen, Switzerland). For pre-culturing, cells were first grown overnight in complex BHI medium using a single colony from a 2-day pre-incubated BHI agar plate as inoculum. Subsequently, cells were harvested (8500 xg, 5 min, RT), washed once with minimal medium, and used to inoculate a second pre-culture in minimal glucose medium. The second pre-culture was then harvested during the exponential phase (8500 xg, 5 min, RT), washed once, and used to inoculate the main culture, again in minimal medium. The temperature was set to 30°C for precultures and 37°C for main cultures. All experiments were conducted as triplicate.
Quantification of intracellular metabolites. To quantify intracellular amino acids and ectoines, 2 mL of mid-exponentially growing cells were sampled by fast filtration (cellulose nitrate filter, 0.2 µm, 47 mm, Sartorius, Göttingen, Germany) (Bolten CJ, Kiefer P, Letisse F, Portais J-C, Wittmann C: Sampling for Metabolome Analysis of Microorganisms. Analytical chemistry 2007, 79:3843-3849.), including twice washing of the cells on the filter with two volumes of 2.5% NaCl. The filters were then transferred into cups prefilled with a 220 µM α-amino butyric acid solution as internal standard for later quantification. […] The obtained supernatants were collected for analysis, and intracellular amino acids were quantified by HPLC (Hans MA, Heinzle E, Wittmann C: Quantification of intracellular amino acids in batch cultures of Saccharomyces cerevisiae. Appl Microbiol Biotechnol 2001, 56:776-779.).
Quantification of ectoine and hydroxyectoine. Concentrations of ectoine and hydroxyectoine were analyzed by HPLC (Agilent Series 1290 Infinity, Agilent, Santa Clara, CA, USA). […] External standards were applied for quantification.
Quantification of amino acids. Amino acid levels of cell lysates were quantified using HPLC (Agilent Series 1290 Infinity, Agilent, Santa Clara, CA, USA) with α-amino butyric acid as internal standard. For this, the analytes were derivatized with ortho-phthalaldehyde and 9-fluorenylmethyl chloroformate and were separated and quantified as described previously (Krömer J, Fritz M, Heinzle E, Wittmann C: In vivo quantification of intracellular amino acids and intermediates of the methionine pathway in Corynebacterium glutamicum. Analytical biochemistry 2005, 340:171-173.).
For this purpose, the inventors extracted and quantified intracellular ectoine, hydroxyectoine, and free proteinogenic amino acids from the three strains during mid exponential growth, i. e. after 10 h (Fig. 3). […]

[3] = hydroxyectoine producers, glucose + 5 mM ectoine

`CC1=NC(C(=O)O)CCN1` (stereo not drawn) [ectoine, 1,4,5,6-tetrahydro-2-methyl-4-pyrimidinecarboxylic acid] was tested, and the cell fitness (C. glutamicum [1]; increasing ectoine concentration, strains expressing MSM, VSA, HEL, SCO EctD variants) was “unchanged”, the “cell fitness (specific growth rate)” value (C. glutamicum [1]; initial ectoine 5, 10, 15 mM, strains pClik and pCES PtufectD^PST) was “not affected” and the “reduction of intracellular I-glutamic acid” value (C. glutamicum [2]; MSM strain, glucose + 5 mM ectoine, versus control without ectoine) was “up to 47%”. The “intracellular pools of I-glutamic acid, I-glutamine, and I-proline” value (C. glutamicum [2]; ectoine added to non-producing control strain with empty pCES vector, 5 mM) was “strongly reduced”, the “drop of intracellular level of I-glutamine” value (C. glutamicum [2]; [3]) was “up to 61%” and the “drop of intracellular level of I-proline” value (C. glutamicum [2]; [3]) was “up to 50%”.
